Measurements from ChEMBL document CHEMBL3769371, “1-[(2E)-3-Phenylprop-2-enoyl]-1H-benzimidazoles as anticancer agents: synthesis, crystal structure analysis and binding studies of the most potent anticancer molecule with serum albumin” (Medchemcomm, 2015).

How the values were obtained:
Albumin [1] = molecular target: T1, Albumin (Homo sapiens, UniProt P02768); experiment: Binding affinity to human serum albumin at 0.25 to 2 uM at 308 K by fluorescence microscopic analysis; assay type: ADME; conditions: isolated protein
T1 sequence (P02768 whole entry): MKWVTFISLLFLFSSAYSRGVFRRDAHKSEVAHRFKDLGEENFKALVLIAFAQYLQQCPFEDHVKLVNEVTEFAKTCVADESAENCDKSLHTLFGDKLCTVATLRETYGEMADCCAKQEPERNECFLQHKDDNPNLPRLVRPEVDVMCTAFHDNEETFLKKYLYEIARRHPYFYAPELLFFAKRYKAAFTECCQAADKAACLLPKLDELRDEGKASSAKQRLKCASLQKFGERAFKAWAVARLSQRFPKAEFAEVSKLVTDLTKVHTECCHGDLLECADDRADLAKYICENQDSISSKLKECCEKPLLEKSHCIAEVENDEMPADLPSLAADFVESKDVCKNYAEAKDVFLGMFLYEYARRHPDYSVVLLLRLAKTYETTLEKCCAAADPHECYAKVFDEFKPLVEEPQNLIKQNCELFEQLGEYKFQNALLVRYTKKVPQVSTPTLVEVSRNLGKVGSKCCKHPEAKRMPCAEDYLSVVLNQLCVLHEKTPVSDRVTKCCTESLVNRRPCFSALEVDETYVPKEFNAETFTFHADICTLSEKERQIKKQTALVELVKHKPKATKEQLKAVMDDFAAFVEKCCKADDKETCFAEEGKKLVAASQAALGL

A549 = experiment: Cytotoxicity against human A549 cells assessed as cell growth at 10^-5 M after 48 hrs by SRB assay; assay type: functional; conditions: A549, 48 h, read-out: Activity
[2] = Cytotoxicity against human MOLT4 cells assessed as cell growth at 10^-5 M after 48 hrs by SRB assay; assay type: functional; conditions: MOLT-4, 48 h, read-out: Activity
NCI-H23 [3] = experiment: Cytotoxicity against human NCI-H23 cells after 48 hrs by SRB assay; assay type: functional; conditions: NCI-H23, 48 h
Albumin [4] = molecular target: T1, Albumin; experiment: Binding affinity to human serum albumin at 0.25 uM at 303 K by fluorescence microscopic analysis in the presence of Mn2+; assay type: ADME; conditions: isolated protein
[5] = Cytotoxicity against human SF268 cells after 48 hrs by SRB assay; assay type: functional; conditions: SF-268, 48 h
Malme-3M [6] = experiment: Cytotoxicity against human MALME-3M cells assessed as cell growth at 10^-5 M after 48 hrs by SRB assay; assay type: functional; conditions: read-out: Activity
[7] = Antiproliferative activity against human OVCAR4 cells at 10'5 M; assay type: functional, OVCAR-4
[8] = Cytotoxicity against human SF295 cells assessed as cell growth at 10^-5 M after 48 hrs by SRB assay; assay type: functional; conditions: SF-295, 48 h, read-out: Activity
Albumin [9] = molecular target: T1, Albumin; experiment: Binding affinity to human serum albumin at 0.25 uM at 303 K by fluorescence microscopic analysis in the presence of K+; assay type: ADME; conditions: isolated protein
SK-MEL-2 = experiment: Cytotoxicity against human SK-MEL-2 cells assessed as cell growth at 10^-5 M after 48 hrs by SRB assay; assay type: functional; conditions: SK-MEL-2, 48 h, read-out: Activity
KM12 = experiment: Cytotoxicity against human KM12 cells after 48 hrs by SRB assay; assay type: functional; conditions: KM12, 48 h
[10] = Cytotoxicity against human COLO205 cells after 48 hrs by SRB assay; assay type: functional; conditions: COLO 205, 48 h
HT-29 [11] = experiment: Cytotoxicity against human HT-29 cells after 48 hrs by SRB assay; assay type: functional; conditions: HT-29, 48 h
[12] = Cytotoxicity against human UACC257 cells after 48 hrs by SRB assay; assay type: functional; conditions: UACC-257, 48 h
Albumin [13] = molecular target: T1, Albumin; experiment: Binding affinity to human serum albumin assessed as fluorescence quenching in steady state at 0.25 uM at 303 K by fluorescence microscopic analysis; assay type: ADME; conditions: isolated protein
[14] = Cytotoxicity against human SNB19 cells after 48 hrs by SRB assay; assay type: functional; conditions: SNB-19, 48 h
A498 = experiment: Cytotoxicity against human A498 cells assessed as cell growth at 10^-5 M after 48 hrs by SRB assay; assay type: functional; conditions: A498, 48 h, read-out: Activity
[15] = Cytotoxicity against human DU145 cells after 48 hrs by SRB assay; assay type: functional; conditions: DU-145, 48 h
HT-29 [16] = experiment: Cytotoxicity against human HT-29 cells assessed as cell growth at 10^-5 M after 48 hrs by SRB assay; assay type: functional; conditions: HT-29, 48 h, read-out: Activity
[17] = Cytotoxicity against human SF539 cells after 48 hrs by SRB assay; assay type: functional; conditions: SF-539, 48 h
[18] = Cytotoxicity against human SF539 cells assessed as cell growth at 10^-5 M after 48 hrs by SRB assay; assay type: functional; conditions: SF-539, 48 h, read-out: Activity
CCRF-CEM = experiment: Cytotoxicity against human CCRF-CEM cells assessed as cell growth at 10^-5 M after 48 hrs by SRB assay; assay type: functional; conditions: read-out: Activity
SK-MEL-5 = experiment: Cytotoxicity against human SK-MEL-5 cells after 48 hrs by SRB assay; assay type: functional; conditions: SK-MEL-5, 48 h
[19] = Cytotoxicity against human HCT15 cells after 48 hrs by SRB assay; assay type: functional; conditions: HCT-15, 48 h
[20] = Cytotoxicity against human BT549 cells after 48 hrs by SRB assay; assay type: functional; conditions: BT-549, 48 h
MCF7 = experiment: Antiproliferative activity against human MCF7 cells at 10'5 M; assay type: functional
NCI-H460 = experiment: Cytotoxicity against human NCI-H460 cells assessed as cell growth at 10^-5 M after 48 hrs by SRB assay; assay type: functional; conditions: NCI-H460, 48 h, read-out: Activity
SK-MEL-28 = experiment: Cytotoxicity against human SK-MEL-28 cells assessed as cell growth at 10^-5 M after 48 hrs by SRB assay; assay type: functional; conditions: SK-MEL-28, 48 h, read-out: Activity
[21] = Cytotoxicity against human OVCAR3 cells assessed as cell growth at 10^-5 M after 48 hrs by SRB assay; assay type: functional; conditions: OVCAR-3, 48 h, read-out: Activity
T47D = experiment: Cytotoxicity against human T47D cells assessed as cell growth at 10^-5 M after 48 hrs by SRB assay; assay type: functional; conditions: read-out: Activity
[22] = Cytotoxicity against human Hs 578T cells after 48 hrs by SRB assay; assay type: functional
[23] = Cytotoxicity against human HCC2998 cells assessed as cell growth at 10^-5 M after 48 hrs by SRB assay; assay type: functional; conditions: HCC 2998, 48 h, read-out: Activity
[24] = Cytotoxicity against human HOP62 cells after 48 hrs by SRB assay; assay type: functional; conditions: HOP-62, 48 h
[25] = Antiproliferative activity against human NCI-ADR-RES cells at 10'5 M; assay type: functional
[26] = Cytotoxicity against human OVCAR5 cells assessed as cell growth at 10^-5 M after 48 hrs by SRB assay; assay type: functional; conditions: OVCAR-5, 48 h, read-out: Activity
Malme-3M [27] = experiment: Cytotoxicity against human MALME-3M cells after 48 hrs by SRB assay; assay type: functional
[28] = Cytotoxicity against human Caki1 cells after 48 hrs by SRB assay; assay type: functional; conditions: CAKI-1, 48 h
NCI-H23 [29] = experiment: Cytotoxicity against human NCI-H23 cells assessed as cell growth at 10^-5 M after 48 hrs by SRB assay; assay type: functional; conditions: NCI-H23, 48 h, read-out: Activity
[30] = read-out: LC50 (the source's name)

SMILES: O=C(/C=C/c1ccccc1)n1c(-c2ccc(Cl)cc2)nc2ccccc21
- K (Albumin [1]): 6.27 ×10³ /mol
- growth at 10 µM (A549): -4.99%
- growth at 10 µM [2]: 21.9%
- GI50 (NCI-H23 [3]): 2.17 µM
- TGI (NCI-H23 [3]): 6 µM
- CC50 (NCI-H23 [3]; [30]): > 100 µM
- K (Albumin [4]): 3.85 ×10³ /mol
- GI50 [5]: 1.45 µM
- TGI [5]: 5.03 µM
- CC50 [5, 30]: 27.9 µM
- growth at 10 µM (Malme-3M [6]): 15.9%
- growth inhibition (GI) [7]: 69.96%
- growth at 10 µM [8]: -52%
- K (Albumin [9]): 4.21 ×10³ /mol
- growth at 10 µM (SK-MEL-2): -36%
- GI50 (KM12): 1.51 µM
- TGI (KM12): 3.71 µM
- CC50 (KM12; [30]): 9.16 µM
- GI50 [10]: 1.23 µM
- TGI [10]: 2.64 µM
- CC50 [10, 30]: 5.65 µM
- GI50 (HT-29 [11]): 1.34 µM
- TGI (HT-29 [11]): 7.05 µM
- CC50 (HT-29 [11]; [30]): 29.8 µM
- GI50 [12]: 1.64 µM
- TGI [12]: 3.12 µM
- CC50 [12, 30]: 5.93 µM
- K (Albumin [13]): 5.68 ×10³ /mol
- GI50 [14]: 1.47 µM
- TGI [14]: 2.92 µM
- CC50 [14, 30]: 5.79 µM
- growth at 10 µM (A498): -14.6%
- GI50 [15]: 1.8 µM
- TGI [15]: 4.93 µM
- CC50 [15, 30]: 17 µM
- growth at 10 µM (HT-29 [16]): -40.6%
- GI50 [17]: 2.5 µM
- TGI [17]: 6.46 µM
- CC50 [17, 30]: 26.1 µM
- growth at 10 µM [18]: -48.4%
- growth at 10 µM (CCRF-CEM): -23.9%
- GI50 (SK-MEL-5): 1.49 µM
- TGI (SK-MEL-5): 3.22 µM
- CC50 (SK-MEL-5; [30]): 6.92 µM
- GI50 [19]: 1.21 µM
- TGI [19]: 2.88 µM
- CC50 [19, 30]: 6.9 µM
- GI50 [20]: 1.67 µM
- TGI [20]: 3.22 µM
- CC50 [20, 30]: 6.18 µM
- growth inhibition (GI) (MCF7): 89.71%
- growth at 10 µM (NCI-H460): 0.54%
- growth at 10 µM (SK-MEL-28): -65.4%
- growth at 10 µM [21]: -57.2%
- growth at 10 µM (T47D): -4.25%
- GI50 [22]: 2.57 µM
- TGI [22]: 17.9 µM
- CC50 [22, 30]: > 100 µM
- growth at 10 µM [23]: 5.08%
- GI50 [24]: 1.89 µM
- TGI [24]: 7.3 µM
- CC50 [24, 30]: 35.1 µM
- growth inhibition (GI) [25]: 89.22%
- growth at 10 µM [26]: -48.1%
- GI50 (Malme-3M [27]): 0.59 µM
- TGI (Malme-3M [27]): 1.91 µM
- CC50 (Malme-3M [27]; [30]): 4.77 µM
- GI50 [28]: 1.18 µM
- TGI [28]: 10 µM
- CC50 [28, 30]: 31.7 µM
- growth at 10 µM (NCI-H23 [29]): -24.5%
